Reference: ChEMBL document CHEMBL1909576, “Continued exploration of biphenylsulfonamide scaffold as a platform for aggrecanase-1 inhibition” (Bioorg Med Chem Lett, 2011)

Tests used:
[1] = target: T1, A disintegrin and metalloproteinase with thrombospondin motifs 4 (Homo sapiens, UniProt O75173); assay: Inhibition of aggrecanase-1
T1 sequence (O75173 whole entry): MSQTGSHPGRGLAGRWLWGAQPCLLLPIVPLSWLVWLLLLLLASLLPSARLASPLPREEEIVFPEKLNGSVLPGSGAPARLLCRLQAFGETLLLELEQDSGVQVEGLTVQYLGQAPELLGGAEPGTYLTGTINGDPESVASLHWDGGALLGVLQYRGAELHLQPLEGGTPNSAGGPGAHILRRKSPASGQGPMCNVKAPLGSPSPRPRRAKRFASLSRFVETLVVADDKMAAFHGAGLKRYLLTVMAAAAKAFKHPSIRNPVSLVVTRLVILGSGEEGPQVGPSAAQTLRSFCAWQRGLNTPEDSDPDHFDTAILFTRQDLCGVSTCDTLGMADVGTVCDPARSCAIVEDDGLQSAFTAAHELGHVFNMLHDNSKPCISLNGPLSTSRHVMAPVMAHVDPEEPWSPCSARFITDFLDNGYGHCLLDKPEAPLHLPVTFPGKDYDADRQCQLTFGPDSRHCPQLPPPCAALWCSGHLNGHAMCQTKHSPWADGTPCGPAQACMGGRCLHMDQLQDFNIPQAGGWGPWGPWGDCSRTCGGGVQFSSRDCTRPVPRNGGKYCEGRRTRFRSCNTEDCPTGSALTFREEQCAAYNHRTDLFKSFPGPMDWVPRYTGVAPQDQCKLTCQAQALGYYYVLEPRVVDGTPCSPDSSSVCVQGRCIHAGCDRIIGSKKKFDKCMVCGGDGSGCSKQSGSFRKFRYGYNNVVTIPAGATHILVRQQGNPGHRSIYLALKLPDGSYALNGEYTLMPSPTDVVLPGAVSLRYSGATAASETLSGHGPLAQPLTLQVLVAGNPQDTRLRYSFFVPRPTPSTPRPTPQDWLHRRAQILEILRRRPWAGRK

Collagenase 3 = Collagenase 3 (Homo sapiens, UniProt P45452); assay: Inhibition of MMP13
[2] = target: T2, A disintegrin and metalloproteinase with thrombospondin motifs 5 (Homo sapiens) (UniProt Q9UNA0); assay: Inhibition of aggrecanase-2 at 200 uM
T2 sequence (whole entry): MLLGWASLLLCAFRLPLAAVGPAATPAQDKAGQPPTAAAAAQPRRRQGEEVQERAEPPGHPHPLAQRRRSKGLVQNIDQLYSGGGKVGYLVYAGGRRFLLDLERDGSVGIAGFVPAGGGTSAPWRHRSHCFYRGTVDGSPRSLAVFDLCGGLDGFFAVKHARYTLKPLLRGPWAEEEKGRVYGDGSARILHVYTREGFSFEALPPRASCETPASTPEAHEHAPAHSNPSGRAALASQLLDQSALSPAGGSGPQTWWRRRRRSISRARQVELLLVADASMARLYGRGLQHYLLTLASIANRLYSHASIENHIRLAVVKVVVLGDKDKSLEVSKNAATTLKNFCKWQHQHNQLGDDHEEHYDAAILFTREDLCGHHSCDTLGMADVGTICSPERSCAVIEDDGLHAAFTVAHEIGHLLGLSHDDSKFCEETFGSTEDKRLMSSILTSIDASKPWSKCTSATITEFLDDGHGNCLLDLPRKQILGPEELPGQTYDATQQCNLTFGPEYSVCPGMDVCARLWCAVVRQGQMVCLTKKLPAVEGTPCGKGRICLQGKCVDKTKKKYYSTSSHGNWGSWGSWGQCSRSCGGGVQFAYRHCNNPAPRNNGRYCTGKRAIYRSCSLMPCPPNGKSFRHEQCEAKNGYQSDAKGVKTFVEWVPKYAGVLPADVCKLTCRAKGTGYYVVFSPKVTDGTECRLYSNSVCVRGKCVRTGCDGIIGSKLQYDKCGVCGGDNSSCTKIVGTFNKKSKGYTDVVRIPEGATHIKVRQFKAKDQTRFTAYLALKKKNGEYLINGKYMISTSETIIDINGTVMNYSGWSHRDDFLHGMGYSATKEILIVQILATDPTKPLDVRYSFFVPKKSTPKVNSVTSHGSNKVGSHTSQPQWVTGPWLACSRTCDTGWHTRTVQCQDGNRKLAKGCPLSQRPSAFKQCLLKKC

[3] = target: T3, A disintegrin and metalloproteinase with thrombospondin motifs 4 (Bos taurus) (UniProt Q9TT93); assay: Inhibition of aggrecanase 1 in bovine cartilage explant assessed as inhibition of IL1-stimulated proteoglycan degradation at 10 ug/ml
T3 sequence (whole entry): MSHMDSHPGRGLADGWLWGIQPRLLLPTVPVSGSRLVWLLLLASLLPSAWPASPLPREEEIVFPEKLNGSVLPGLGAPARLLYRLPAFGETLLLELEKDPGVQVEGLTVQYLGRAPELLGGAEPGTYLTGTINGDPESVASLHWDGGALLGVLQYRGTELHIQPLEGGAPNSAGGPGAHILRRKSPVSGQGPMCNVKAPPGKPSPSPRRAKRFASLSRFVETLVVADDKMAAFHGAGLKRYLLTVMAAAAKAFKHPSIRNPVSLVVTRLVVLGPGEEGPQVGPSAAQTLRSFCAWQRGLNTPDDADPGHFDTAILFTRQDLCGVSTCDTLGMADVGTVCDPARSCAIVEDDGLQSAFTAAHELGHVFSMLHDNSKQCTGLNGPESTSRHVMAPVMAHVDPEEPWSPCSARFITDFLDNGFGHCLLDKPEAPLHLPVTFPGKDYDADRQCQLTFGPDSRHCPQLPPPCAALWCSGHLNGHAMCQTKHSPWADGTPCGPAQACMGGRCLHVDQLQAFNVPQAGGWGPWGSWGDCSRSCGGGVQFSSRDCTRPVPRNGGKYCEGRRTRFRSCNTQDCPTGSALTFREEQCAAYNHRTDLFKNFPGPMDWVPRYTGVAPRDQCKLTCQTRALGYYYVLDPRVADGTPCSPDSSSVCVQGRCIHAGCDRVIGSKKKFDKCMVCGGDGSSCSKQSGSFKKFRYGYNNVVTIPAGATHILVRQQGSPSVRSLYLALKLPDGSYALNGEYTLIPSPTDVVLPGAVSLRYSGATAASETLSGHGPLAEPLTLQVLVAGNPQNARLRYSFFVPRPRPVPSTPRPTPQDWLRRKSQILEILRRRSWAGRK

[4] = target: T4, A disintegrin and metalloproteinase with thrombospondin motifs 5 (Homo sapiens, UniProt Q9UNA0); assay: Inhibition of aggrecanase-2
T4 sequence (Q9UNA0 whole entry): T2 sequence (whole entry)

Compound | IC50 [1] [nM] | IC50 (Collagenase 3) [nM] | further results
CC(C)[C@@H](NS(=O)(=O)c1ccc(-c2ccc(OC(N)=O)cc2)cc1)C(=O)O | 4100 | – | –
CC(C)[C@@H](NS(=O)(=O)c1ccc(-c2ccc(OCc3ccccc3)cc2)cc1)C(=O)O | – | 5.6 | –
CC(C)[C@@H](NS(=O)(=O)c1ccc(-c2ccc(OCc3cccc([N+](=O)[O-])c3)cc2)cc1)C(=O)O | 540 | 1.4 | –
CNC(=O)Oc1ccc(-c2ccc(S(=O)(=O)N[C@@H](C(=O)O)C(C)C)cc2)cc1 | 50000 | – | –
CC(=O)NCc1ccc(-c2ccc(S(=O)(=O)N[C@@H](C(=O)O)C(C)C)cc2)cc1 | 420 | 450 | inhibition [2]: 73%; inhibition [3]: 20%
CC(C)[C@@H](NS(=O)(=O)c1ccc(-c2ccc(OCc3ccc(C(F)(F)F)cc3)cc2)cc1)C(=O)O | 1900 | 2 | –
CC(C)[C@@H](NS(=O)(=O)c1ccc(-c2ccc(OCc3cccc(Cl)c3)cc2)cc1)C(=O)O | 400 | 1.4 | –
CC(C)[C@@H](NS(=O)(=O)c1ccc(-c2ccc(OCC3CCCCC3)cc2)cc1)C(=O)O | > 75000 | – | –
CC(C)[C@@H](NS(=O)(=O)c1ccc(-c2ccc(OCc3ccc4ccccc4n3)cc2)cc1)C(=O)O | 10600 | – | –
CC(C)[C@@H](NS(=O)(=O)c1ccc(-c2ccc(OCc3ccncc3)cc2)cc1)C(=O)O | 8500 | 1.1 | –
CC(C)[C@@H](NS(=O)(=O)c1ccc(-c2cccc(CN)c2)cc1)C(=O)O | 7200 | – | –
CC(C)[C@@H](NS(=O)(=O)c1ccc(-c2ccc(OCc3ccnc4ccccc34)cc2)cc1)C(=O)O | 1000 | 5.2 | –
CC(C)[C@@H](NS(=O)(=O)c1ccc(-c2ccc(OCc3ccccn3)cc2)cc1)C(=O)O | 33000 | – | –
CC(C)[C@@H](NS(=O)(=O)c1ccc(-c2ccc(OCc3cccc(Br)c3)cc2)cc1)C(=O)O | 420 | 1600 | –
CC(C)[C@@H](NS(=O)(=O)c1ccc(-c2ccc(OCc3ccccc3C(F)(F)F)cc2)cc1)C(=O)O | 9100 | 24700 | –
CC(C)[C@@H](NS(=O)(=O)c1ccc(-c2ccc(OCc3ccc(C#N)cc3)cc2)cc1)C(=O)O | 1400 | 0.1 | –
CC(C)[C@@H](NS(=O)(=O)c1ccc(-c2ccc(CO)cc2)cc1)C(=O)O | 15000 | – | –
CC(C)[C@@H](NS(=O)(=O)c1ccc(-c2ccc(OCc3cccc(O)c3)cc2)cc1)C(=O)O | 3700 | 4000 | –
CC(C)[C@@H](NS(=O)(=O)c1ccc(-c2ccc(OC(=O)Nc3ccccc3)cc2)cc1)C(=O)O | 5600 | – | –
Cc1c(COc2ccc(-c3ccc(S(=O)(=O)N[C@@H](C(=O)O)C(C)C)cc3)cc2)oc2ccccc12 | – | 4 | IC50 [4]: 3700 nM; inhibition [3]: 89%
CC(Oc1ccc(-c2ccc(S(=O)(=O)N[C@@H](C(=O)O)C(C)C)cc2)cc1)c1cccc(C(F)(F)F)c1 (stereo partly drawn) | 2700 | 12 | –
CC(C)[C@@H](NS(=O)(=O)c1ccc(-c2cccc(C#N)c2)cc1)C(=O)O | 40000 | – | –
CC(=O)N(C)Cc1ccc(-c2ccc(S(=O)(=O)N[C@@H](C(=O)O)C(C)C)cc2)cc1 | > 200000 | – | –
CC(=O)Nc1cccc(-c2ccc(S(=O)(=O)N[C@@H](C(=O)O)C(C)C)cc2)c1 | 20000 | – | –

The next lines start with results.

IC50 [1] [nM] | IC50 (Collagenase 3) [nM] | Compound | further results
760 | 2.6 | COC(=O)c1cccc(COc2ccc(-c3ccc(S(=O)(=O)N[C@@H](C(=O)O)C(C)C)cc3)cc2)c1 | –
4700 | 4300 | CC(C)[C@@H](NS(=O)(=O)c1ccc(-c2ccc(OCc3cccc(C(F)(F)F)n3)cc2)cc1)C(=O)O | –
2600 | 2.2 | CC(C)[C@@H](NS(=O)(=O)c1ccc(-c2ccc(OCc3cccc(F)c3)cc2)cc1)C(=O)O | –
100000 | – | CC(C)[C@@H](NS(=O)(=O)c1ccc(-c2ccc(CNC(=O)c3ccccc3)cc2)cc1)C(=O)O | –
– | 1.4 | CC(C)[C@@H](NS(=O)(=O)c1ccc(-c2ccc(OCc3ccc4ccccc4c3)cc2)cc1)C(=O)O | –
8400 | – | CC(C)[C@@H](NS(=O)(=O)c1ccc(-c2cccc(C(N)=O)c2)cc1)C(=O)O | –
30000 | – | CC(C)[C@@H](NS(=O)(=O)c1ccc(-c2ccc(OCc3cccnc3)cc2)cc1)C(=O)O | –
13200 | – | CC(C)[C@@H](NS(=O)(=O)c1ccc(-c2ccc(Oc3ccccc3)cc2)cc1)C(=O)O | –
22000 | 2.7 | CC(C)[C@@H](NS(=O)(=O)c1ccc(-c2ccc(OCc3cccc(C(=O)O)c3)cc2)cc1)C(=O)O | –
2100 | – | CC(C)[C@@H](NS(=O)(=O)c1ccc(-c2cccc(CO)c2)cc1)C(=O)O | –
2400 | 0.7 | Cc1cc(COc2ccc(-c3ccc(S(=O)(=O)N[C@@H](C(=O)O)C(C)C)cc3)cc2)ccn1 | –
– | 9.6 | Cc1cc(COc2ccc(-c3ccc(S(=O)(=O)N[C@@H](C(=O)O)C(C)C)cc3)cc2)c2ccccc2n1 | –
310 | 3.5 | CC(C)[C@@H](NS(=O)(=O)c1ccc(-c2ccc(OCc3cccc(C(F)(F)F)c3)cc2)cc1)C(=O)O | IC50 [4]: 2380 nM; inhibition [3]: 87%
25000 | – | CC(C)[C@@H](NS(=O)(=O)c1ccc(-c2ccc(OC(=O)NCc3ccccc3)cc2)cc1)C(=O)O | –
> 200000 | – | CC(=O)NCc1cccc(-c2ccc(S(=O)(=O)N[C@@H](C(=O)O)C(C)C)cc2)c1 | –
100000 | – | CC(=O)Nc1ccc(-c2ccc(S(=O)(=O)N[C@@H](C(=O)O)C(C)C)cc2)cc1 | –
1400 | 7.1 | CC(C)[C@@H](NS(=O)(=O)c1ccc(-c2ccc(OCc3cccc4ccccc34)cc2)cc1)C(=O)O | –
8200 | – | CC(C)[C@@H](NS(=O)(=O)c1ccc(-c2ccc(OS(=O)(=O)c3ccccc3)cc2)cc1)C(=O)O | –
2200 | 1 | CC(C)[C@@H](NS(=O)(=O)c1ccc(-c2ccc(OCc3ccnc(C(F)(F)F)c3)cc2)cc1)C(=O)O | –
